Earlier results on 16 substances are cited in paper PMC2600787, “Flanking p10 contribution and sequence bias in matrix based epitope prediction: revisiting the assumption of independent binding pockets” (BMC Structural Biology, 2008).

The target in one data set is HLA-DRB3*0101 (HLA-DR52a) (Homo sapiens, UniProt P01903+P79483). As to conditions: earlier structural and binding studies; crystallography CSP, unpublished; ref not given. From the text:
Results from structural and binding studies using the peptide […] in complex with HLA-DRB3*0101 (HLA-DR52a) show a contribution from position p10. 24-[…]-39, from the N-terminus of human […] is a major ligand of DR52a. A natural variant of the epitope widely distributed in the population is 24-[…]-39. The Leu33/Pro33 dimorphism is the basis of the unidirectional alloimmune posttransfusion thrombocytopenia purpura (PTP) and fetal-maternal alloimmune thrombocytopenia (FMAIT), severe blood disorders in some DR52a subjects homozygous in Pro33 [[2 ...
As for “AWCSDEALPLGSPRCD [peptide from the N-terminus of human integrin α2βIIIa, a major ligand of DR52a]”, the “binding to DR52a (in words)” value is reported as “major ligand”.

Consider “AWCSDEALPPGS [shorter Pro33 integrin peptide]”, for which the “binding to DR52a (in words)” value is listed as “does not bind”.

Consider AWCSDEALPPGSPRCD, for which the “binding to DR52a (in words)” value was “does not bind”.

With “AWCSDEALPPLS [Pro33 integrin peptide with leucine replacing glycine at position 10]”, the “binding to DR52a (in words)” value is given as “has been demonstrated to bind”.

Another data set deals with HLA-DR1. More on the design: method as in 2 sources, ref Geluk et al. [32] ||| ref [32] = [32]; PMID 9753297; doi:10.2337/diabetes.47.10.1594; Geluk A van Meijgaarden KE Schloot NC Drijfhout JW Ottenhoff TH Roep BO HLA-DR binding analysis of peptides from islet antigens in IDDM Diabetes 1998 47 1594 1601 9753297 10.2337/diabetes.47.10.1594; pIC50exp: unit not given here. As to conditions: according to IC50 binding measurements; ref [32]. From the text: Anchor residues at dominant pockets p1, p4, p6 and p9 are as expected for DR1 [12].
As to “SCSKVDVNYAFLHATDLLPA [peptide 9, 20-mer peptide from GAD65]”, the “binding to DR1 (in words)” value is on record as “strong binder”.

Staying with this data set, now noted: experimental binding affinity to HLA-DR1; logarithmic transform of IC50; 20-mer peptides from GAD65 (1 through 100) and ICA69 (101 and above), pruned to remove poor binders; ref Geluk et al. [32].
Turning to “115: 20-mer peptide from ICA69 (VETFRHRAISDTWLTVNRME) [compound 115]”, the pIC50exp is given as 1.10.

Turning to “AIHESFKGYQPYEFTTLKSL [peptide 126, 20-mer peptide from ICA69]”, the pIC50exp is given as 0.10.

Regarding “DPDLYKQMEKFRKVQTQVRL [peptide 119, 20-mer peptide from ICA69]”, the pIC50exp was 0.22.

Take “FRKVQTQVRLAKKNFDKLKM [peptide 120, 20-mer peptide from ICA69]”: the pIC50exp was 0.00.

For “LQDVMNILLQYVVKSFDRST [peptide 12, 20-mer peptide from GAD65]”, the pIC50exp is -0.60.

On to “LVSATAGTTVYGAFDPLLAV [peptide 33, 20-mer peptide from GAD65]”, for which the pIC50exp is listed as 0.05.

On to “MASPGSGFWSFGSEDGSGDS [peptide 1, 20-mer peptide from GAD65]”, for which the pIC50exp is reported as -0.70.

With “QCRTEYRGALLWMKDVSQEL [peptide 117, 20-mer peptide from ICA69]”, the pIC50exp was 1.10.

For “RKESSSFKTEDGKSILSALD [peptide 132, 20-mer peptide from ICA69]”, the pIC50exp was 0.52.

Regarding “SCSKVDVNYAFLHATDLLPA [peptide 9, 20-mer peptide from GAD65]”, the pIC50exp was 1.52.

Consider “SVVNKMQQRYWETKQAFIKA [peptide 103, 20-mer peptide from ICA69]”, for which the pIC50exp is listed as 1.00.

On to “YVVKSFDRSTKVIDFHYPNE [peptide 13, 20-mer peptide from GAD65]”, for which the pIC50exp is reported as -0.77.
